Values quoted from earlier work in publication PMC2074382 (British Journal of Cancer, 1996).

How the values were obtained:
[1] = set-up: method as in Rowinsky et al., 1992; Verweij et al., 1993; details: daily x 5 schedule; ref Rowinsky et al., 1992; Verweij et al., 1993; cited from earlier work
[2] = set-up: method as in PMID 5081595, PMID 8137244; details: in vitro and in vivo pharmacology; cited from earlier work
[3] = clinical; cited from earlier work

Row | Structure (SMILES) | dose-limiting toxicity [1] | potency relative to GI147211 (fold less potent) [2] [fold] | induced toxicity [3]
1 | CC[C@@]1(O)C(=O)OCc2c1cc1n(c2=O)Cc2cc3c(CN(C)C)c(O)ccc3nc2-1 [topotecan] | myelosuppression | 2.2 | –
2 | CCc1c2c(nc3ccc(OC(=O)N4CCC(N5CCCCC5)CC4)cc13)-c1cc3c(c(=O)n1C2)COC(=O)[C@]3(O)CC [Irinotecan] | – | – | neutropenia in addition to diarrhoea
